According to US4663332A, “5-substituted N-alkylated tetrazoles” (Hoffman-La Roche Inc., priority 1985, dated 1987):

Assays:
[1] = target: T1, PAF binding to dog platelets (Canis lupus familiaris, UniProt A0A8I3NSH0); assay: PAF Radioreceptor Binding Assay (PAF Binding); conditions: inhibition of 3H-PAF binding to dog platelets, 10 min, room temperature
T1 construct: from tissue; host or cells: washed platelets from citrate-treated dog blood
T1 sequence (A0A8I3NSH0 1-343): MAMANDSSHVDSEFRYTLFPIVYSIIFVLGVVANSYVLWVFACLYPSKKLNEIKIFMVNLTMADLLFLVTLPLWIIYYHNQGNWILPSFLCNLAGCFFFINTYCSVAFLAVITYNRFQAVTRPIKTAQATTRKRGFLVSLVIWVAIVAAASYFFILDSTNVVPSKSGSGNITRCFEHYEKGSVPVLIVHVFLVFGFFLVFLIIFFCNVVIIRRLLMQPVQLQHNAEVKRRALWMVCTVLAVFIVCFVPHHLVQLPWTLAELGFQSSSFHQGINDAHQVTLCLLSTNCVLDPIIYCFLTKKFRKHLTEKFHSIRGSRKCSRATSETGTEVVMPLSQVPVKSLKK
Protocol: (1) PAF Radioreceptor Binding Assay (PAF Binding)
Platelet rich plasma is prepared by centrifugation of citrate-treated dog blood. Acidification to pH 6.5 with 0.15M citric acid and centrifugation for 10 minutes at 1000×g yields a platelet pellet which is then washed by resuspension in EDTA-Phosphate Buffered Saline (PBS) and recentrifuged. The washed platelet preparation is adjusted to 2×10^7 platelets/50 μl in 0.1% bovine serum albumin-PBS.
To a 400 μl microfuge tube containing 50 μl silicone oil (specific gravity 1.023) is added buffer, PAF standard or analog, or an extract to bring the aqueous volume to 150 μl. 50 μl of ^3 H-PAF (10,000 cpm, 45 Ci/mM) is added followed by 2×10^7 dog platelets. After mixing, incubating for 10 minutes at room temperature, and centrifuging for 1 minute in a Beckman Microfuge B (8000×g), the pellet is removed by clipping off the tip of the tube, the platelets are solubilized with 200 μl of 50% methanol and counted in 10 ml of Aquasol. […] Results obtained with representative copounds of the present invention in this assay are summarized hereinafter in Tables I and II. IC50 is drug concentration (μMolar) which inhibits PAF binding to dog platelets by 50%.

PAF [2] = assay: Inhibition of PAF-Induced Platelet Aggregation (Inhib. of PAF Platelet Reduction); format: in vivo, guinea pig; conditions: Cavia porcellus, iv, 3 mg/kg i.v.
Protocol: (5) Inhibition of PAF-Induced Platelet Aggregation (Inhib. of PAF Platelet Reduction)
Guinea pigs (anesthetized) are set up to withdraw blood for platelet counting. The animal is allowed to stabilize after completion of surgical procedures. The carotid catheter is allowed to bleed back blood and then is filled, prior to each sample withdrawal with sodium citrate 3.8% (0.15 ml). Blood (0.25 ml) is withdrawn 30 seconds prior to the PAF challenge and at 15, 30 and 60 seconds after the PAF challenge. This first PAF challenge is used as the control, assuming sufficient decreases in platelet count are observed. The amount of PAF used will be approximately 50 ng/kg, however, this can be increased to achieve the desired decreases in platelet count. Fifteen minutes after the control PAF challenge, intravenous drug dosing begins, with animals being dosed at 30 minute intervals; PAF challenge follows 15 minutes after each intravenous dose. Three intravenous drug doses are used in each experiment. Initial drug doses are 1, 3 and 10 mg/kg i.v. Inhibition of PAF platelet reduction at 3 mg/kg i.v. for representative compounds of the invention are summarized hereinafter in Tables I and II. Percent inhibition is [formula]

TXA2 synthase = target: T2, TXA2 synthase (Homo sapiens, UniProt P24557); assay: Thromboxane Synthase Inhibition, In Vitro (TXA2 Synth. Inhib.); format: biochemical; conditions: human platelet microsomes, 10 μM 14C-PGH2, 22° C., 2 min
T2 construct: using microsomal fractions from human platelets as enzyme source; from tissue; host or cells: microsomal fractions from human platelets
T2 sequence (P24557 1-533): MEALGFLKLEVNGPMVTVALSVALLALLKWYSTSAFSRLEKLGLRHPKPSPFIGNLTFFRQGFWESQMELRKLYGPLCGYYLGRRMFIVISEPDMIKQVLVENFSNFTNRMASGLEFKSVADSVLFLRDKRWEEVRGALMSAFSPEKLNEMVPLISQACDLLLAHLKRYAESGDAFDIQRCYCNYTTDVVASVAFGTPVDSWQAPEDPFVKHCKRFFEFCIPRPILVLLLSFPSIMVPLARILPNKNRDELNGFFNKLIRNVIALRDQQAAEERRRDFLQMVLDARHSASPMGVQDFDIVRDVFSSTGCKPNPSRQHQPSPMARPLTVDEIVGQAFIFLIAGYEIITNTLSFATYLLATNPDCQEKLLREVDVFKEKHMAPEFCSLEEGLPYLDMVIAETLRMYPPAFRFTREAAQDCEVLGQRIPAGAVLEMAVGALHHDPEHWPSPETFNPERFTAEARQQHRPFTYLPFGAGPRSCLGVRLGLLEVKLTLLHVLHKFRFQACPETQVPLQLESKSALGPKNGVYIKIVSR
Protocol: (2) Thromboxane Synthase Inhibition, In Vitro (TXA2 Synth. Inhib.)
TXA2 synthase activity is measured by following the conversion of ^14 C-prostaglandin endoperoxide (PGH2) to ^14 C-thromboxane A2 (TXA2) using microsomal fractions from human platelets as enzyme source. In the aqueous incubation medium, the TXA2 decomposes rapidly into TXB2. The amount of TXA2 synthase is adjusted so that under the conditions of the assay approximately 80-90% of the substrate, PGH2, is converted to product in control tubes. To prepare ^14 C-PGH2, ^14 C-AA (50-60 mCi/mmole; Rose Chem.) is incubated with sheep seminal vesicular gland microsomes for 1.5 minutes at 37° C. and then the ^14 C-PGH2 is extracted with diethylether, purified on columns oof Sephadex LH-20 or silicic acid, and stored in acetone at -70° C. Incubations are done as follows. Sufficient ^14 C-PGH2 to yield a final substrate concentration of 10 μM (30,000 cpm) is added to the incubation tubes and then the acetone is removed under nitrogen. The tubes are placed in an ice bath and then 215 μl of ice cold phosphate buffered saline, 10 μl of ethanol (control) or of test drug in ethanol, and 25 μl of the microsomal suspension are added with mixing in that order as rapidly as possible. The tubes are incubated at 22° C. for 2 minutes, the reaction is stopped and then the radioactive products and the unconverted PGH2 are extracted and analyzed by thin layer chromatography. […] The amount of ^14 C-PGH2 converted to products was used as a measure of TXA2 synthase activity. Inhibitors were tested initially at a final concentration 100 μM. Results obtained with representative compounds of the present invention in this assay are summarized hereafter in Tables I and II. IC50 is the drug concentration (μMolar) which inhibits TXA2 activity by 50%.

PAF [3] = assay: Inhibition of PAF Induced Guinea Pig Bronchoconstriction Test (Inhib. of PAF Broncho.); format: in vivo, guinea pig (Hartley strain); conditions: Cavia porcellus, iv; 1 mg/kg i.v. (1 min. pretreat)
Protocol: (3) Inhibition of PAF Induced Guinea Pig Bronchoconstriction Test (Inhib. of PAF Broncho.)
Male guinea pigs (Hartley strain) weighing 300 to 500 g are anesthetized with urethane (2 g/kg) intraperitoneally and a polyethylene cannula is inserted into the jugular vein for drug administration. Tracheal pressure is recorded from a cannula inserted in the trachea and connected to a Statham pressure transducer. Propranolol (0.1 mg/kg) is administered intravenously five minutes before challenge with synthetic PAF, the animal's skeletal muscles are then paralyzed with succinylcholine (1.2 mg/kg i.v.), and the animal is respirated using a Harvard small animal respirator operating at 40 breaths/min and 2.5 cc stroke volume. Under these conditions PAF induces a dose-dependent increase in ventilatory pressure over a dose range of 0.5 to 5 μg/kg i.v. For screening purposes animals are challenged with a single dose of PAF (10 μg/kg i.v.).
The peak increase in ventilatory pressure (cm H2 O) is recorded for three control animals and five drug-treated animals and the percent inhibition determined from the following formula [formula] Results obtained with representative compounds of the invention in this test are summarized hereinafter in Tables I and II.

SMILES	IC50 [1] [nM]	IC50 (TXA2 synthase) [nM]	inhibition in vivo at 3 mg/kg (PAF [2]) [%]	inhibition in vivo at 1 mg/kg (PAF [3]) [%]
CCCc1c(OCCCCc2nnnn2CCc2cccnc2)ccc(C(C)=O)c1O [H H 4 2 3-pyridyl, 1-[2-Hydroxy-3-propyl-4-[4-[1-[2-(3-pyridinyl)ethyl]-1H-tetrazol-5-yl]butoxy]phenyl]ethanone]	1000		48	-15 ± 6
CCCc1c(OCCCCc2nnn(CCc3cccnc3)n2)ccc(C(C)=O)c1O [4 2 3-pyridyl, 1-[2-Hydroxy-3-propyl-4-[4-[2-[2-(3-pyridinyl)ethyl]-2H-tetrazol-5-yl]butoxy]phenyl]ethanone]	> 1000			
CCCc1c(O)c(C(C)=O)cc(Cl)c1OCc1cccc(-c2nnnn2CCCc2cccnc2)c1 [1-[5-chloro-2-hydroxy-3-propyl-4-[[3-[1-[3-(3-pyridinyl)propyl]-1H-tetrazol-5-yl]phenyl]methoxy]phenyl]ethanone]	25		25	43 ± 21
CCCc1c(OCCCCc2nnn(CCCc3cccnc3)n2)ccc(C(C)=O)c1O [4 3 3-pyridyl, 1-[2-Hydroxy-3-propyl-4-[4-[2-[3-(3-pyridinyl)propyl]-2H-tetrazol-5-yl]butoxy]phenyl]ethanone]	> 1000			55 ± 9
CCCc1c(OCCCCCc2nnn(CCCc3cccnc3)n2)ccc(C(C)=O)c1O [5 3 3-pyridyl, 1-[2-Hydroxy-3-propyl-4-[5-[2-[3-(3-pyridinyl)propyl]-2H-tetrazol-5-yl]pentyloxy]phenyl]ethanone]	> 1000	100 to 1000		38 ± 11
CCCc1c(OCCCCc2nnn(CCCn3ccnc3)n2)ccc(C(C)=O)c1O [4 3 1-imidazolyl, 1-[2-Hydroxy-3-propyl-4-[4-[2-[3-(1H-imidazol-1-yl)propyl]-2H-tetrazol-5-yl]butoxy]phenyl]-ethanone]	> 1000			30 ± 15

The next lines start with results.

IC50 [1] [nM]	IC50 (TXA2 synthase) [nM]	SMILES	inhibition in vivo at 3 mg/kg (PAF [2]) [%]	inhibition in vivo at 1 mg/kg (PAF [3]) [%]
140	1000	CCCc1c(O)c(C(C)=O)cc(Cl)c1OCCCCCc1nnnn1CCCCc1cccnc1 [Cl H 5 4 3-pyridyl, 1-[5-chloro-2-hydroxy-3-propyl-4-[5-[1-[4-(3-pyridinyl)butyl]-1H-tetrazol-5-yl]pentyloxy]phenyl]ethanone]	7	
800		CCCc1c(OCCCCCc2nnnn2Cc2cccnc2)ccc(C(C)=O)c1O [H H 5 1 3-pyridyl, 1-[2-Hydroxy-3-propyl-4-[5-[1-(3-pyridinyl)methyl-1H-tetrazol-5-yl]-pentyloxy]phenyl]ethanone]		
275	100 to 1000	CCCc1c(OCCCCCc2nnnn2CCCCc2cccnc2)ccc(C(C)=O)c1O [H H 5 4 3-pyridyl, 1-[2-Hydroxy-3-propyl-4-[5-[1-[4-(3-pyridinyl)butyl]-1H-tetrazol-5-yl]pentyloxy]phenyl]ethanone]	0	58 ± 14
480	100 to 1000	CCCc1c(OCCCCCc2nnn(CCCCc3cccnc3)n2)ccc(C(C)=O)c1O [5 4 3-pyridyl, 1-[2-Hydroxy-3-propyl-4-[5-[2-[4-(3-pyridinyl)butyl]-2H-tetrazol-5-yl]pentyloxy]phenyl]ethanone]		94 ± 6
250	10 to 100	CCCc1c(OCCCc2nnnn2CCCc2cccnc2)ccc(C(C)=O)c1O [H H 3 3 3-pyridyl, 1-[2-Hydroxy-3-propyl-4-[3-[1-[3-(3-pyridinyl)propyl]-1H-tetrazol-5-yl]propoxy]phenyl]ethanone]		53 ± 17
> 1000		CCCc1c(OCCCCCc2nnn(Cc3cccnc3)n2)ccc(C(C)=O)c1O [5 1 3-pyridyl]		
> 1000		CCCc1c(OCCCc2nnn(CCCc3cccnc3)n2)ccc(C(C)=O)c1O [3 3 3-pyridyl, 1-[2-hydroxy-3-propyl-4-[3-[2-[3-(3-pyridinyl)propyl]-2H-tetrazol-5-yl]propoxy]phenyl]ethanone]		13 ± 7
1000		CCCc1c(OCCCc2nnn(CCCCc3cccnc3)n2)ccc(C(C)=O)c1O [3 4 3-pyridyl, 1-[2-Hydroxy-3-propyl-4-[3-[2-[4-(3-pyridinyl)butyl]-2H-tetrazol-5-yl]propoxy]phenyl]ethanone]		38 ± 14
200	1000	CCCc1c(OCc2cccc(-c3nnnn3CCCc3cccnc3)c2)ccc(C(C)=O)c1O [1-[2-hydroxy-3-propyl-4-[[3-[1-[3-(3-pyridinyl)propyl]-1H-tetrazol-5-yl]phenyl]methoxy]phenyl]ethanone]		
